Measured values from patent publication EP4692090A1 (Shanghai Fosun Pharmaceutical (Group) Co., Ltd., priority 2023, dated 2024).
Where two headings read alike, the source gives them in different places.

Columns and labels:
ATR kinase = target: T1, ATR kinase (Homo sapiens, UniProt Q13535); assay: Inhibitory effect on ATR kinase activity (Caliper mobility shift, FAM-labeled RAD17 peptide substrate); format: biochemical
T1 construct: purchased Eurofins 14-953
Method in brief: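 Caliper mobility-shift assay with 1 nM ATR, FAM-labeled RAD17 peptide […] and 5 mM ATP in HEPES pH 7.5 with 10 mM MnCl2, run 3 h at 28 °C and stopped with EDTA. Compounds were tested in 10-point 3-fold dilutions from 1 µM. IC50 was fitted from % inhibition of substrate conversion versus blank control.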

LoVo cells = assay: LoVo cell proliferation assay (CellTiter-Glo); format: cell-based; conditions: Homo sapiens, LoVo, 120 h, maximum concentration 10 µM, 9 concentrations
Method in brief: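 LoVo cells, 2,000 per well, were treated after overnight attachment with 9-point 3-fold dilutions from 10 µM for 5 days at 37 °C. Viability was read by CellTiter-Glo luminescence. Inhibition % was taken relative to DMSO control, and IC50 came from the concentration–inhibition curve.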

[1] = ATR kinase IC50 (nM), 1 nM ATR kinase (Eurofins), 28°C for 3 hours, maximum concentration 1 µM, 10 concentrations
[2] = read-out: LoVo IC50 (nM), LoVo cells, 2,000 cells per well, 5 days incubation, CellTiter-Glo
[3] = read-out: ATR kinase IC50, 1 nM ATR kinase (Eurofins), 28°C for 3 hours, maximum concentration 1 µM, 10 concentrations
[4] = 1 nM ATR kinase (Eurofins), 28°C for 3 hours, maximum concentration 1 µM, 10 concentrations, read-out: ATR kinase IC50
[5] = LoVo cells, 2,000 cells per well, 5 days incubation, CellTiter-Glo, read-out: LoVo IC50

T1 sequence (Q13535 whole entry): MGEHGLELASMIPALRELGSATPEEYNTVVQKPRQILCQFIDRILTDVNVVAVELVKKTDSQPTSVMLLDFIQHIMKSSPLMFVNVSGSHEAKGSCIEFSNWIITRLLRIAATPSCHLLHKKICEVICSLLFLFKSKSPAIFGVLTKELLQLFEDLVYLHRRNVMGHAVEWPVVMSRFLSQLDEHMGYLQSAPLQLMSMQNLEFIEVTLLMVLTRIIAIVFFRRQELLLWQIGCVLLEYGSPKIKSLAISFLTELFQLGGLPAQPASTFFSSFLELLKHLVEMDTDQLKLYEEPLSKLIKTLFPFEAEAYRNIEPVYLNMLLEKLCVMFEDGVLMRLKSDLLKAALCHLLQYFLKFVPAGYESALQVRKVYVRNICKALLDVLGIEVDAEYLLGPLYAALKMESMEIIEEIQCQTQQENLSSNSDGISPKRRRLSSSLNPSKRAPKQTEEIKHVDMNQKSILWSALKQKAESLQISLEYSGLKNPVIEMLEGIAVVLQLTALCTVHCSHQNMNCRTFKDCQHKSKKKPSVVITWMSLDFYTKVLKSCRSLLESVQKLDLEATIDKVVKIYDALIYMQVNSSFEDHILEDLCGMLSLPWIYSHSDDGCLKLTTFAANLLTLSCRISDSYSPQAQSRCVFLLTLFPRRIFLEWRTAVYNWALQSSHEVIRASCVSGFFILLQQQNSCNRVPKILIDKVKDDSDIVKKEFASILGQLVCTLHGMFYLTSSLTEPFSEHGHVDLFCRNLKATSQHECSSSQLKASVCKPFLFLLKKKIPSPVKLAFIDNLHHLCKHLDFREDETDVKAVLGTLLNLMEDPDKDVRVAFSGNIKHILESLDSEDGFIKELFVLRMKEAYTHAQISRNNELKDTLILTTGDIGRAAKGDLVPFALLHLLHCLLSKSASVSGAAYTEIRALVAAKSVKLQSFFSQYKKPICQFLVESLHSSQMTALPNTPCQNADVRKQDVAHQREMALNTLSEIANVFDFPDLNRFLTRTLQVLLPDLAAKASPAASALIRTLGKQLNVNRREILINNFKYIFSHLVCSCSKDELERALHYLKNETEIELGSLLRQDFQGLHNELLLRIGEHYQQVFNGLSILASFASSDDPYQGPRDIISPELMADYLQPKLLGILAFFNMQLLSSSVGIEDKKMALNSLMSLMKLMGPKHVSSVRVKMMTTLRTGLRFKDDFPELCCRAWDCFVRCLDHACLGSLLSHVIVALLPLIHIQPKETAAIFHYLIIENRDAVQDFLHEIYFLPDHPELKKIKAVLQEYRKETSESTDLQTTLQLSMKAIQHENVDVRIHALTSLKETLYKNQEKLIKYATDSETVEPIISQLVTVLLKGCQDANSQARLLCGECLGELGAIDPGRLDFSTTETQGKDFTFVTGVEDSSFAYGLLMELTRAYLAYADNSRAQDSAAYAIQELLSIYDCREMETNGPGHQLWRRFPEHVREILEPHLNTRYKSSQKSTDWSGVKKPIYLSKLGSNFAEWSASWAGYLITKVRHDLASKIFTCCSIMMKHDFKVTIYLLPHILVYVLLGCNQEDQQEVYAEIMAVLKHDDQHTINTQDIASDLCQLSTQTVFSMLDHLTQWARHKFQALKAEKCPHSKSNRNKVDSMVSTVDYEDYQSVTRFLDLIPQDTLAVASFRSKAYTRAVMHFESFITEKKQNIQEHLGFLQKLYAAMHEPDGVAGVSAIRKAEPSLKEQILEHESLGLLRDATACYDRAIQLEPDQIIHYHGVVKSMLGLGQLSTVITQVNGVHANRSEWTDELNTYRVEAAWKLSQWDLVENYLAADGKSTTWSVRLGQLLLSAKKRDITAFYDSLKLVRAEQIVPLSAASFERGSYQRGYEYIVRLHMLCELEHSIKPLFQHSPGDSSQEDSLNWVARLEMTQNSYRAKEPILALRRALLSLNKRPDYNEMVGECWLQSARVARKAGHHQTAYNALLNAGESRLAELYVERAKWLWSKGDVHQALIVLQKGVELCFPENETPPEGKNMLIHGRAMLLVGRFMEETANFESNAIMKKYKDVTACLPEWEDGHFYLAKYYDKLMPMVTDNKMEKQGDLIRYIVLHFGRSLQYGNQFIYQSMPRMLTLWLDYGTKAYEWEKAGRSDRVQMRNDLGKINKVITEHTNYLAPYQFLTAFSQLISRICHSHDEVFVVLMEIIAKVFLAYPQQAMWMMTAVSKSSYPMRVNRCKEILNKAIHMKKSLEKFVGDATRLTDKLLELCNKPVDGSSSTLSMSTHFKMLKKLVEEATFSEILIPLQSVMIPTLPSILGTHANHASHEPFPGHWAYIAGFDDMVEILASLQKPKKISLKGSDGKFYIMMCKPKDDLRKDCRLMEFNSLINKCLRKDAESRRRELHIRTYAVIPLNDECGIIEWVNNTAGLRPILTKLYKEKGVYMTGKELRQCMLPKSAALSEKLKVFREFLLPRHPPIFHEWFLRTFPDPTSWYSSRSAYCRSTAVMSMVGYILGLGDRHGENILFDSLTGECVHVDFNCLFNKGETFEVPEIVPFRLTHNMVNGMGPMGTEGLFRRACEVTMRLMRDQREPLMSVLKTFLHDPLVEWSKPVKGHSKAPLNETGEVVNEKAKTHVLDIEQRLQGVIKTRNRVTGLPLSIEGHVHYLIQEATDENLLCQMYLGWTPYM
T1 sequence (Q8WXE1 whole entry partner): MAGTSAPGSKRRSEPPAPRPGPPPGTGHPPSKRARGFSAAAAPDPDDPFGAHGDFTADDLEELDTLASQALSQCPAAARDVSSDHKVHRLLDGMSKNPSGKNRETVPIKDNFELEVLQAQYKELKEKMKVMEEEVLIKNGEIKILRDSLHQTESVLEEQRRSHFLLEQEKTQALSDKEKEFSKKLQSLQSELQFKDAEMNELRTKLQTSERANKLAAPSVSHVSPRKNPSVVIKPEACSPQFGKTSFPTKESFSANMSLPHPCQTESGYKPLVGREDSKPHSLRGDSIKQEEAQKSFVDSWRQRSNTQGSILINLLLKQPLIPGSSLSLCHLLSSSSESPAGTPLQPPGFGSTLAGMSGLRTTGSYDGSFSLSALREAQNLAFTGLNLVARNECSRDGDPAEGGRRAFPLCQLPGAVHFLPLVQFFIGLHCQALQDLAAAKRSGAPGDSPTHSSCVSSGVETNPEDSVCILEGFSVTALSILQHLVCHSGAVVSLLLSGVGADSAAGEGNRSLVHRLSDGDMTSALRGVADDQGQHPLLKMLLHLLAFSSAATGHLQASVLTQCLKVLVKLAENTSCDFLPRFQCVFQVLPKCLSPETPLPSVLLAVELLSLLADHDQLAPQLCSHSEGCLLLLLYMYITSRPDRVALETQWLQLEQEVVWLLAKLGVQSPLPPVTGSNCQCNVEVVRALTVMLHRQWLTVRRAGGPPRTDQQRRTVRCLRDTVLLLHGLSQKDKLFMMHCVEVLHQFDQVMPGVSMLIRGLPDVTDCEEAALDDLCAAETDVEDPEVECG

Row | IC50 (ATR kinase; [4]) [nM] | IC50 (LoVo cells; [5]) [nM] | Structure (SMILES) | IC50 (ATR kinase; [1]) [nM] | IC50 (LoVo cells; [2]) [nM] | IC50 (ATR kinase; [3]) [nM]
1 |  |  | C[C@@H]1COCCN1c1cc2c3c(n1)c(-c1cc[nH]n1)nn3CCC(=O)N2C1(C2CC2)CC1 [Compound 108, (R)-6-([1,1'-bis(cyclopropane)]-1-yl)-4-(3-methylmorpholinyl)-2-(1H-pyrazol-3-yl)-8,9-dihydro-1,3,6,9a-tetraazabenzo[cd]azulene-7(6H)-one] | < 10 | 100 to 1000 | 
2 |  |  | C[C@@H]1COCCN1c1cc2c3c(n1)c(-c1cc[nH]n1)nn3CCC(=O)N2C1CC(F)(F)C1 [Compound 109, (R)-6-(3,3-difluorocyclobutyl)-4-(3-methylmorpholinyl)-2-(1H-pyrazol-3-yl)-8,9-dihydro-1,3,6,9a-tetraazabenzo[cd]azulene-7(6H)-one] |  | 100 to 1000 | 10 to 100
3 |  |  | C[C@@H]1COCCN1c1cc2c3c(n1)c(-c1cc[nH]n1)nn3CCC(=O)N2C12CC(C1)C2 [Compound 110, (R)-6-(bicyclo[1.1.1]pentan-1-yl)-4-(3-methylmorpholinyl)-2-(1H-pyrazol-3-yl)-8,9-dihydro-1,3,6,9a-tetraazabenzo[cd]azulene-7(6H)-one] |  | < 100 | < 10
4 |  |  | C[C@@H]1COCCN1c1cc2c3c(n1)c(-c1cc[nH]n1)nn3CCC(=O)N2C1(CF)CC1 [Compound 112, (R)-6-(1-(fluoromethyl)cyclopropyl)-4-(3-methylmorpholinyl)-2-(1H-pyrazol-3-yl)-8,9-dihydro-1,3,6,9a-tetraazabenzo[cd]azulene-7(6H)-one] |  | < 100 | < 10
5 |  |  | COCC1(N2C(=O)CCn3nc(-c4cc[nH]n4)c4nc(N5CCOC[C@H]5C)cc2c43)CC1 [Compound 113, (R)-6-(1-(methoxymethyl)cyclopropyl)-4-(3-methylmorpholinyl)-2-(1H-pyrazol-3-yl)-8,9-dihydro-1,3,6,9a-tetraazabenzo[cd]azulene-7(6H)-one] |  | 100 to 1000 | 10 to 100
6 |  |  | C[C@@H]1COCCN1c1cc2c3c(n1)c(-c1cc[nH]n1)nn3CCC(=O)N2C1(CO)CC1 [Compound 114, (R)-6-(1-(hydroxymethyl)cyclopropyl)-4-(3-methylmorpholinyl)-2-(1H-pyrazol-3-yl)-8,9-dihydro-1,3,6,9a-tetraazabenzo[cd]azulene-7(6H)-one] |  | 100 to 1000 | < 10
7 |  |  | C[C@@H]1COCCN1c1cc2c3c(n1)c(-c1cc[nH]n1)nn3CCC(=O)N2CC12CC(F)(C1)C2 [Compound 115, (R)-6-((3-fluorobicyclo[1.1.1]pentan-1-yl)methyl)-4-(3-methylmorpholinyl)-2-(1H-pyrazol-3-yl)-8,9-dihydro-1,3,6,9a-tetraazabenzo[cd]azulene-7(6H)-one] |  | < 100 | < 10
8 |  |  | C[C@@H]1COCCN1c1cc2c3c(n1)c(-c1cc[nH]n1)nn3CCC(=O)N2CC1(C#N)CC1 [Compound 116, (R)-1-((4-(3-methylmorpholinyl)-7-oxo-2-(1H-pyrazol-3-yl)-8,9-dihydro-1,3,6,9a-tetraazabenzo[cd]azulene-6(7H)-yl)methyl)cyclopropane-1-carbonitrile] |  | 100 to 1000 | 10 to 100
9 | 10 to 100 | 100 to 1000 | CC1Cn2nc(-c3cc[nH]n3)c3nc(N4CCOC[C@H]4C)cc(c32)N(C(C)C)C1=O (stereo partly drawn) [Compound 119, 6-isopropyl-8-methyl-4-((R)-3-methylmorpholino)-2-(1H-pyrazol-3-yl)-8,9-dihydro-1,3,6,9a-tetraazabenzo[cd]azulene-7(6H)-one] |  |  | 
10 | 10 to 100 | 100 to 1000 | CC(C)N1CCCn2nc(-c3cc[nH]n3)c3nc(N4CCOC[C@H]4C)cc1c32 [Compound 120, (R)-4-(6-isopropyl-2-(1H-pyrazol-3-yl)-6,7,8,9-tetrahydro-1,3,6,9a-tetraazabenzo[cd]azulen-4-yl)-3-methylmorpholine] |  |  | 
11 | 10 to 100 | < 100 | C[C@@H]1COCCN1c1cc2c3c(n1)c(-c1cc[nH]n1)nn3CCCN2S(C)(=O)=O [Compound 121, (R)-3-methyl-4-(6-(methylsulfonyl)-2-(1H-pyrazol-3-yl)-6,7,8,9-tetrahydro-1,3,6,9a-tetraazabenzo[cd]azulen-4-yl)morpholine] |  |  | 
12 | 10 to 100 | 100 to 1000 | C[C@@H]1COCCN1c1cc2c3c(n1)c(-c1cc[nH]n1)nn3CCCN2C1CC1 [Compound 122, (R)-4-(6-cyclopropyl-2-(1H-pyrazol-3-yl)-6,7,8,9-tetrahydro-1,3,6,9a-tetraazabenzo[cd]azulen-4-yl)-3-methylmorpholine] |  |  | 
13 |  |  | C[C@@H]1COCCN1c1cc2c3c(n1)c(-c1cc[nH]n1)nn3CCCN2CC(C)(C)O [Compound 123, (R)-2-methyl-1-(4-(3-methylmorpholinyl)-2-(1H-pyrazol-3-yl)-8,9-dihydro-1,3,6,9a-tetraazabenzo[cd]azulene-6(7H)-yl)propan-2-ol] |  | 100 to 1000 | 10 to 100
14 | 10 to 100 | < 100 | C[C@@H]1COCCN1c1cc2c3c(nn(-c4cc[nH]n4)c3n1)CCN(C1CC1)C2=O [Compound 132, (R)-7-cyclopropyl-4-(3-methylmorpholino)-2-(1H-pyrazol-3-yl)-2,7,8,9-tetrahydro-6H-1,2,3,7-tetraazabenzo[cd]azulene-6-one] |  |  | 
15 | 10 to 100 | < 100 | C[C@@H]1COCCN1c1cc2c3c(nn(-c4cc[nH]n4)c3n1)CCN(C1COC1)C2C1CC1 (stereo partly drawn) [Compound 135, (3R)-4-(6-cyclopropyl-7-(oxetan-3-yl)-2-(1H-pyrazol-3-yl)-6,7,8,9-tetrahydro-2H-1,2,3,7-tetraazabenzo[cd]azulen-4-yl)-3-methylmorpholine] |  |  | 
16 | 10 to 100 | < 100 | CC(C)C1c2cc(N3CCOC[C@H]3C)nc3c2c(nn3-c2cc[nH]n2)CCN1C1COC1 (stereo partly drawn) [Compound 136, (3R)-4-(6-isopropyl-7-(oxetan-3-yl)-2-(1H-pyrazol-3-yl)-6,7,8,9-tetrahydro-2H-1,2,3,7-tetraazabenzo[cd]azulen-4-yl)-3-methylmorpholine] |  |  | 
17 |  |  | C[C@@H]1COCCN1c1cc2c3c(nn(-c4cc[nH]n4)c3n1)CCN(C13CC(C1)C3)C2=O [Compound 139, (R)-7-(bicyclo[1.1.1]pentan-1-yl)-4-(3-methylmorpholinyl)-2-(1H-pyrazol-3-yl)-2,7,8,9-tetrahydro-6H-1,2,3,7-tetraazabenzo[cd]azulene-6-one] |  | 100 to 1000 | < 10
18 | < 10 | < 100 | C[C@@H]1COCCN1c1cc2c3c(nn(-c4cc[nH]n4)c3n1)CCOC2(C)C [Compound 146, (R)-6,6-dimethyl-4-(3-methylmorpholino)-2-(1H-pyrazol-3-yl)-2,6,8,9-tetrahydro-7-oxa-1,2,3-triazabenzo[cd]azulene] |  |  | 
19 |  |  | C[C@@H]1COCCN1c1cc2c3c(nn(-c4cc[nH]n4)c3n1)CCOC21CCC1 [Compound 147, (R)-4-(3-Methylmorpholino)-2-(1H-pyrazol-3-yl)-8,9-dihydro-2H-7-oxa-1,2,3-triazaspiro[benzo[cd]azulene-6,1'-cyclobutane]-1(9a),2a,2a1(5a),4-tetraene] | < 10 | < 100 | 
20 | < 10 | < 100 | C[C@@H]1COCCN1c1cc2c3c(nn(-c4cc[nH]n4)c3n1)CCN(C)C2(C)C [Compound 149, (R)-3-methyl-4-(6,6,7-trimethyl-2-(1H-pyrazol-3-yl)-6,7,8,9-tetrahydro-2H-1,2,3,7-tetraazabenzo[cd]azulen-4-yl)morpholine] |  |  | 
21 |  |  | CC1c2cc(N3CCOC[C@H]3C)nc3c2c(nn3-c2cc[nH]n2)CCN1S(C)(=O)=NC1CC1 (stereo partly drawn) [Compound 153, (3R)-4-(7-(N-cyclopropyl-S-methylsulfonylimino)-6-methyl-2-(1H-pyrazol-3-yl)-6,7,8,9-tetrahydro-2H-1,2,3,7-tetraazabenzo[cd]azulen-4-yl)-3-methylmorpholine] |  | 100 to 1000 | 10 to 100
22 | < 10 | < 100 | C[C@@H]1COCCN1c1cc2c3c(nc(-c4cc[nH]n4)n3n1)CCC(=O)N2C1(C)CC1 [Compound 154, (R)-6-(1-methylcyclopropyl)-4-(3-methylmorpholino)-2-(1H-pyrazol-3-yl)-8,9-dihydro-1,2a,3,6-tetraazabenzo[cd]azulene-7(6H )-one] |  |  | 
